Measurements reported in patent publication US11191293B2, “Nutritional composition and infant formula for promoting myelination of the brain” (NESTEC S.A., priority 2015, dated 2021).

Assays:
[1] = tested on: brain myelination (myelin water fraction); test: Cross-sectional correlation of infant formula nutrient content with brain myelination (mcDESPOT MRI myelin water fraction); assay type: in vivo, human; conditions: formula-fed children up to 5 years of age; brain regions named per nutrient
Procedure: MRI (Magnetic Resonance Imaging): MRI brain scans of infants and children between 0 and 5 years were acquired using a white matter imaging technique. This technique provides a quantitative measure, the Myelin Water Fraction (MWF), which is a surrogate marker of myelin content in the brain. When mapped as a function of time across early childhood, myelination trajectories can be generated.
Infant formula composition: six infant formulas fed to infants participating in a study were analyzed for their composition/level of myelin-relevant nutrients.
Infants included in this study were drawn from a larger longitudinal study of normal brain and behavioral development: the Brown University Assessment of Myelination and Behavior Across Maturation (BAMBAM). To focus on neurotypical development, children with known potential risk factors for learning, neurologic, or psychiatric disorders were specifically excluded during recruitment and enrollment. Thus, children with in utero alcohol or illicit substance exposure, premature (<37 weeks gestation) or multiple birth, fetal ultrasound abnormalities, complicated pregnancy (e.g., preeclampsia), APGAR scores <8, NICU admission, neurological disorder (e.g., head injury, epilepsy), psychiatric or developmental disorders in the infant, parents or siblings (including maternal depression requiring medication) were excluded. Ongoing screenings, such as the MCAT for autism, or CBCL for behavioral problems, were further used to remove enrolled children with clinically concerning behaviors or overt medical conditions (such as autism spectrum disorders).
A combination of retrospective and prospective data were acquired from parents via detailed medical histories and parental interview on the type of infant formula used, percentage of breastfeeding to formula feeding, and length of exclusive breastfeeding. This information was updated at each study visit, which occurred approximately every 6 months for children under 2 years, and yearly for older children. Using this information, children were categorized into one of 2 groups: #1. Exclusively formula-fed; and #2. Exclusively breastfed for at least 90 days (3 months). Children who were fed a combination of breastmilk and formula within 3 months were excluded from our analysis. Infants within the exclusively formula-fed group were further sub-divided based on parental reports of the main infant formula used throughout the first 3 months. Main formula was defined as that given 90% of the time or more (in the case were parents used an alternate brand during vacation, for example).
Using these criteria, 94 exclusively formula-fed infants and young children were selected into group #1. These included 13 children who received formula #2; 28 who received formula #5; 8 who received formula #3; 39 who received formula #4; 5 who received formula #1 and 1 who received formula #6. A sample of 52 exclusively breast-fed infants were also selected and matched to the over formula-fed group with regards to mean age, gestation duration, birth weight, male:female ratio, ethnicity ratio, maternal education, family size, and number of languages spoken in the home (in addition to English).
Each infant was scanned using the mcDESPOT (multicomponent Driven Equilibrium Single Pulse Observation of T1 and T2) white matter imaging technique Deoni et al. (Magn. Reson. Med. 2008, 60:1372-1387), which provides a quantitative measure of the myelin water fraction (MWF)—a measure of myelin content—at each point throughout the brain. All infants were scanned during natural (i.e. non-sedated) sleep using acoustically-muffled mcDESPOT imaging protocols. Total imaging times ranged from 19 minutes for the youngest toddlers to 24 minutes for the older 4 year-old children.

[2] = tested on: neural progenitor cell (NPCs); test: Differentiation assay: quantification of neuronal and glial marker expression in monolayer NPC culture; assay type: cell-based, mouse; design: key: marker integrated density normalized to DAPI integrated density; conditions: 9 d culture; for astrocyte cell density: GFAP normalized to DAPI
Procedure: Generation of neural progenitor cell (NPCs) libraries: dissociation of E14 mouse neocortex E14 pup brains were harvested and placed in ice cold DPBS(1X)+10% Pen/Strep, then they were dissected using a dissecting microscope. From each pup, one brain hemisphere was placed in 2 ml of Neurobasal media/10% P/S/10X Hepes and another brain hemisphere was placed in another tube. The tissue from each tube was aseptically and manually dissociate into single cells, neurobasal complete medium was added and centrifuged at […] for 5 min. The tissue was then re-suspended in neurobasal complete media with GF and placed in a corning suspension culture dish 100 mm×20 mm (#430591). […] 24 well glass bottom plates (Mat Tek […]-1.0-13-F Case, glass bottom 24 well plates) were coated with poly-L-ornithin (Sigma P4957) and Fibronection (Sigma F1141) before use in the assay below. Cells were plated (10,000 cells per well) in Complete media with GF for 24 hours (500 ul per well). […] After 24 hours, it was ensured that cells were attached to the plate, then the medium was carefully removed. […] Note: medium contains no GF. […] The cells were culture for 9 d in media plus 2% Nu Serum, the medium was changed every 2 nd day. For fixation and subsequent immunohistochemical analysis the medium was removed, the cells were rinsed once with 1X PBS for 5 min, and fixed with 4% PFA in 1X PBS for 15 min at 4° C. The cells were then washed twice with 1X PBS for 5 min, left in 1X PBS, wrapped in foil and left overnight at 4C, or they were immediately primary antibody staining was carried out. PBS was removed and enough AB staining solution (1% Goat serum, 1xPBS, and 0.1% triton X) was added to cover the bottom, the block was kept at room temp for 1 hour. Primary antibody dilutions were made in appropriate amount of AB staining solution, 250 ul per well (the antibodies were only kept out on ice for a short time, mouse anti-MAP2 or TUJ1 1:500 (neuron marker), rabbit anti-GFAP(glial marker) 1:1000, chicken anti-Nestin CFP (EGFP antibody (progenitor cell marker)) 1:1000. AB staining solution was removed and a solution of primary antibodies was added to each chamber. The cells were wrapped in foil and kept overnight 4'C. The cells were then washed with 400 ul of AB staining solution for 5 min once to remove primary antibodies. Secondary antibody solutions were made (enough for 250 ul of each chamber) (Goat anti-mouse alexa 488 1:2000, anti-rabbit Cy3 (1:500), anti-chicken alexa 647 1:500, and 1:5000 Dapi). The cells were incubated at room temp for 1 hour in the dark and washed 2 time in AB staining solution for five mins. They were then kept at 4° C. or Imaged using a GE Cytell imager or LSM 710, Zeiss confocal microscope and analyze with ImageJ software(National Institutes of Health). Each marker expression was measured on collected images (integrated density measure in ImageJ) and normalized to DAPI fluorescence, marking all nuclei (integrated density measure). Octanoic Acid were labeled with neuronal beta-tubulin III (TuJ1), subsequent compounds were labeled with Microtubule-associated protein 2 (MAP2).

phosphatidylcholine
association of nutrient content of infant formula with myelination (myelin water fraction) over time in the brain [1]: an association with myelination (myelin water fraction) was observed

[Ca+2] [calcium]
association of nutrient content of infant formula with myelination (myelin water fraction) over time in the brain [1]: an association with myelination (myelin water fraction) was observed

[Zn] [zinc]
association of nutrient content of infant formula with myelination (myelin water fraction) over time in the brain [1]: an association with myelination (myelin water fraction) was observed

CCCCCCCCCCCCCCCCCC(=O)O [Stearic acid, Stearic Acid]
astrocyte cell density ([2]; Stearic acid high dose (Dose 3, 10 μM)): 0.85
Neuronal Cell density ([2]; Stearic acid high dose (Dose 3, 10 μM), MAP2 normalized to DAPI): 0.64
astrocyte cell density ([2]; Stearic acid low dose (Dose 1, 100 nM)): 0.68
Neuronal Cell density ([2]; Stearic acid low dose (Dose 1, 100 nM), MAP2 normalized to DAPI): 0.54
astrocyte cell density ([2]; Stearic acid med dose (Dose 2, 1 μm)): 0.81
Neuronal Cell density ([2]; Stearic acid med dose (Dose 2, 1 μm), MAP2 normalized to DAPI): 0.66

phosphatidylinositol
association of nutrient content of infant formula with myelination (myelin water fraction) over time in the brain [1]: an association with myelination (myelin water fraction) was observed

iron
association of nutrient content of infant formula with myelination (myelin water fraction) over time in the brain [1]: an association with myelination (myelin water fraction) was observed

CCCCCCCC/C=C\CCCCCCCCCCCCCC(=O)O [Nervonic acid, Nervonic Acid]
astrocyte cell density ([2]; Nervonic acid high dose (Dose 3, 1 μm)): 0.7028
Neuronal Cell density ([2]; Nervonic acid high dose (Dose 3, 1 μm), MAP2 normalized to DAPI): 0.5394
astrocyte cell density ([2]; Nervonic acid low dose (Dose 1, 10 nM)): 0.6218
Neuronal Cell density ([2]; Nervonic acid low dose (Dose 1, 10 nM), MAP2 normalized to DAPI): 0.4676
astrocyte cell density ([2]; Nervonic acid med dose (Dose 2, 100 nM)): 0.7215
Neuronal Cell density ([2]; Nervonic acid med dose (Dose 2, 100 nM), MAP2 normalized to DAPI): 0.5656

[Mg+2] [magnesium]
association of nutrient content of infant formula with myelination (myelin water fraction) over time in the brain [1]: an association with myelination (myelin water fraction) was observed

CCCCC/C=C\C/C=C\C/C=C\C/C=C\CCCC(=O)O [AA, arachidonic acid]
association of nutrient content of infant formula with myelination (myelin water fraction) over time in the brain [1]: an association with myelination (myelin water fraction) was observed

vitamin B12
association of nutrient content of infant formula with myelination (myelin water fraction) over time in the brain [1]: an association with myelination (myelin water fraction) was observed

CCCCCCCC(=O)O [Octanoic acid, Octanoic Acid]
astrocyte cell density ([2]; Octanoic acid high dose (Dose 3, 250 μM)): 7.9
Neuronal Cell density ([2]; Octanoic acid high dose (Dose 3, 250 μM), TuJ1 normalized to DAPI): 1.7
astrocyte cell density ([2]; Octanoic acid low dose (Dose 1, 10 μM)): 3.7
Neuronal Cell density ([2]; Octanoic acid low dose (Dose 1, 10 μM), TuJ1 normalized to DAPI): 1.2
astrocyte cell density ([2]; Octanoic acid med dose (Dose 2, 50 μM)): 6.1
Neuronal Cell density ([2]; Octanoic acid med dose (Dose 2, 50 μM), TuJ1 normalized to DAPI): 1.8

[P] [phosphorus]
association of nutrient content of infant formula with myelination (myelin water fraction) over time in the brain [1]: an association with myelination (myelin water fraction) was observed
